# Tests used:
# CDK4/CyclinD1 = CDK4/CyclinD1 (Homo sapiens, UniProt P11802); test: ADP Glo kinase assay, CDK4/CyclinD1; type: biochemical; conditions: for Ki: Km ATP, read-out: Enzymatic inhibition, Ki, CDK4 D1; for remaining activity at 1 µM: compound at 1 μM, read-out: Residual enzymatic activity (%) at 1 μM, CDK4 D1
# Experimental: (§1) Test compounds are used in 1:3 serial dilutions for 10 concentrations (from 10-0.0005 μM) in 0.5% DMSO. […] The kinase reactions are run for optimised time period at room temperature and then the reaction is stopped by adding 5 μL of ADP Glo reagent.
# CDK7/CyclinH/Mat1 = CDK7/CyclinH/Mat1 (Homo sapiens, UniProt P50613); test: ADP Glo kinase assay, CDK7/CyclinH/Mat1; type: biochemical; conditions: for Ki: Km ATP, read-out: Enzymatic inhibition, Ki, CDK7 H; for remaining activity at 1 µM: compound at 1 μM, read-out: Residual enzymatic activity (%) at 1 μM, CDK7 H
# Experimental: as §1
# CDK9/CyclinT1 = CDK9/CyclinT1 (Homo sapiens, UniProt P50750); test: ADP Glo kinase assay, CDK9/CyclinT1; type: biochemical; conditions: for Ki: CDK9/CyclinT1, Km ATP, read-out: Enzymatic inhibition, Ki, CDK9 T1; for inhibition of CDK9 (in words): compared with comparator compounds A, B and C (N-(pyridin-2-yl)pyrimidin-2-amine moiety)
# Experimental: as §1
# CDK1/CyclinB = CDK1/CyclinB (Homo sapiens, UniProt P06493); test: ADP Glo kinase assay, CDK1/CyclinB; type: biochemical; conditions: for Ki: Km ATP, read-out: Enzymatic inhibition, Ki, CDK1 B
# Experimental: as §1
# FLT3-ITD = target: T1, FLT3-ITD (Homo sapiens, UniProt P36888); test: ADP Glo kinase assay, FLT3-ITD; type: biochemical; conditions: Km ATP 100 μM, read-out: Enzymatic inhibition, Ki, FLT3-ITD
# T1 sequence (P36888 1-993): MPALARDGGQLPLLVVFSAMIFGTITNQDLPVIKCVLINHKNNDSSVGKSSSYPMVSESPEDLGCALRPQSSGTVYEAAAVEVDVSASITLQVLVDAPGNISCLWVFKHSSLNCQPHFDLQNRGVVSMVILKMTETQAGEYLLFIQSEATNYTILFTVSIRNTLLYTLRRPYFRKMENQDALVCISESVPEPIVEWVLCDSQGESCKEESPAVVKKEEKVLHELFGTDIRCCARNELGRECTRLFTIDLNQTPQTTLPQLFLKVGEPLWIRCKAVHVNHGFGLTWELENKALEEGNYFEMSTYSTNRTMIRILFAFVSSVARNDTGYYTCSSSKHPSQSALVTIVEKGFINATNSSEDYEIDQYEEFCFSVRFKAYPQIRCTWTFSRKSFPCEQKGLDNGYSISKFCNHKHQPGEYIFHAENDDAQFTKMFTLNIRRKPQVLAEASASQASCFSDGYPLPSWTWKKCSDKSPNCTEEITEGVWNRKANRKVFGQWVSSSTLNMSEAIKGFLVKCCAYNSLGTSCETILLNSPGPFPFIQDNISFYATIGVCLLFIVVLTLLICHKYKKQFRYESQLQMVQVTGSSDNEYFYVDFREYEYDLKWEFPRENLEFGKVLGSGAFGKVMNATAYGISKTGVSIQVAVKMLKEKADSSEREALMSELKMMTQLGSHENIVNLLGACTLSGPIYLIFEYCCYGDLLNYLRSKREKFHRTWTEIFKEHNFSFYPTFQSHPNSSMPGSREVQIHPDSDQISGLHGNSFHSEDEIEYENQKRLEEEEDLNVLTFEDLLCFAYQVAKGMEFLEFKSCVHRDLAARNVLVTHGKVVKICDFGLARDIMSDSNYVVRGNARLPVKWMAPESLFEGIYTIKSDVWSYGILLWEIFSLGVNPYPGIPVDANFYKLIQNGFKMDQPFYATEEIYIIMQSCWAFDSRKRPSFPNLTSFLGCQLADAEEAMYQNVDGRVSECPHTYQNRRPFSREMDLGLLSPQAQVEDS
# Experimental: as §1
# CDK2/CyclinA2 = CDK2/CyclinA2 (Homo sapiens, UniProt P24941); test: ADP Glo kinase assay, CDK2/CyclinA2; type: biochemical; conditions: for Ki: Km ATP, read-out: Enzymatic inhibition, Ki, CDK2 A; for remaining activity at 1 µM: compound at 1 μM, read-out: Residual enzymatic activity (%) at 1 μM, CDK2 A
# Experimental: as §1
# CDK6/CyclinD3 = CDK6/CyclinD3 (Homo sapiens, UniProt Q00534); test: ADP Glo kinase assay, CDK6/CyclinD3; type: biochemical; conditions: Km ATP, read-out: Enzymatic inhibition, Ki, CDK6 D3
# Experimental: as §1
# MV-4-11 = test: Proliferation assay (resazurin, leukemia cell lines), MV-4-11; type: cell-based; conditions: Homo sapiens, MV4-11, read-out: 72 h Growth inhibition GI50, MV-4-11 cells
# Source text: The following compounds were used as comparators.
# CDK7/CyclinH/Mat1, sequence (P50613 whole entry, species assumed): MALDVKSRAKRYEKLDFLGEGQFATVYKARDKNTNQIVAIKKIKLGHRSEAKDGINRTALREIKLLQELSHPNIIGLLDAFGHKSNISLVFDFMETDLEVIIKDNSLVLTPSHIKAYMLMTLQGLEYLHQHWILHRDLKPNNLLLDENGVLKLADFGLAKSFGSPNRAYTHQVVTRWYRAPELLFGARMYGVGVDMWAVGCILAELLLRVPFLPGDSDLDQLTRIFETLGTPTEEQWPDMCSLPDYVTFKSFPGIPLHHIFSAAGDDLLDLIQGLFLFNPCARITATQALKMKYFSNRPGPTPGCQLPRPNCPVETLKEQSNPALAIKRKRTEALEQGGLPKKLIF
# CDK7/CyclinH/Mat1, sequence (P51946 whole entry partner, species assumed): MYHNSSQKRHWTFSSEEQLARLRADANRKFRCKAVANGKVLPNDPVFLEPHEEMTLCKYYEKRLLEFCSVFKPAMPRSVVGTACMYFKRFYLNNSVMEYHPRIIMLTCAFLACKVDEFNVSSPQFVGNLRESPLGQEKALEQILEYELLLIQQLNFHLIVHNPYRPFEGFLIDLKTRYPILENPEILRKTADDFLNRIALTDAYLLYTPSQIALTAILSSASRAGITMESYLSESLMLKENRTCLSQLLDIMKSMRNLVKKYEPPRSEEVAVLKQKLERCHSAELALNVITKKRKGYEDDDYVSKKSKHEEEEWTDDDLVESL
# CDK7/CyclinH/Mat1, sequence (P51948 whole entry partner, species assumed): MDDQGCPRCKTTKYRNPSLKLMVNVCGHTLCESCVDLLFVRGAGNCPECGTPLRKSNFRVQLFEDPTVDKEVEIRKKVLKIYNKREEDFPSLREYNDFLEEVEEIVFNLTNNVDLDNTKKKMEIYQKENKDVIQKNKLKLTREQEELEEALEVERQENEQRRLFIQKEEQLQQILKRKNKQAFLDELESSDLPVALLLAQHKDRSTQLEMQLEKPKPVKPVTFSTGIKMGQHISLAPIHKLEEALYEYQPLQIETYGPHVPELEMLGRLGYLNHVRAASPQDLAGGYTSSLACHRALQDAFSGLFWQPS
# CDK6/CyclinD3, sequence (Q00534 whole entry, species assumed): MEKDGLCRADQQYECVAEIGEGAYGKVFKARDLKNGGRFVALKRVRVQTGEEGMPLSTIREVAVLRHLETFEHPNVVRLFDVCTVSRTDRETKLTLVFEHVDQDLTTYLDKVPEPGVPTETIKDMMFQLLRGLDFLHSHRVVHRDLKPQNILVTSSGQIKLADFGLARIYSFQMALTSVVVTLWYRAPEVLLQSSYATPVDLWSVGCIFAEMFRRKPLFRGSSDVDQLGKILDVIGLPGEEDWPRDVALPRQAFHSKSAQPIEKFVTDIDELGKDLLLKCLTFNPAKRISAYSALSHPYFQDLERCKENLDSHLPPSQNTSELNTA
# CDK6/CyclinD3, sequence (P30281 whole entry partner, species assumed): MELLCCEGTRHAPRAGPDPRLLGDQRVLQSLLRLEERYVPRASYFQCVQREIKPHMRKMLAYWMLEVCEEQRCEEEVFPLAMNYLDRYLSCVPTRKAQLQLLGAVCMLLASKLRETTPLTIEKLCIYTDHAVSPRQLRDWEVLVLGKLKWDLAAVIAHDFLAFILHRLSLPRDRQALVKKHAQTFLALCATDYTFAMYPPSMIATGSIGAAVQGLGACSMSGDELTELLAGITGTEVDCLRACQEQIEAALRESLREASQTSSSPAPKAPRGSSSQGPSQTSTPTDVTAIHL
# CDK1/CyclinB, sequence (P06493 whole entry, species assumed): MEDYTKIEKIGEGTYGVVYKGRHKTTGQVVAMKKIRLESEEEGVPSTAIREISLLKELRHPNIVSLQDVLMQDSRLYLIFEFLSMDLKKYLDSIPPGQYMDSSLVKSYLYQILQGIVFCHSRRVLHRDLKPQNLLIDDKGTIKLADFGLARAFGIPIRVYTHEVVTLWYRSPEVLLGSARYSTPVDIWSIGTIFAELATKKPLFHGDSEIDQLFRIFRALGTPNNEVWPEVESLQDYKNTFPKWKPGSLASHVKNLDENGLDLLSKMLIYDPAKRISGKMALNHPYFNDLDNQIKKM
# CDK1/CyclinB, sequence (P14635 whole entry partner, species assumed): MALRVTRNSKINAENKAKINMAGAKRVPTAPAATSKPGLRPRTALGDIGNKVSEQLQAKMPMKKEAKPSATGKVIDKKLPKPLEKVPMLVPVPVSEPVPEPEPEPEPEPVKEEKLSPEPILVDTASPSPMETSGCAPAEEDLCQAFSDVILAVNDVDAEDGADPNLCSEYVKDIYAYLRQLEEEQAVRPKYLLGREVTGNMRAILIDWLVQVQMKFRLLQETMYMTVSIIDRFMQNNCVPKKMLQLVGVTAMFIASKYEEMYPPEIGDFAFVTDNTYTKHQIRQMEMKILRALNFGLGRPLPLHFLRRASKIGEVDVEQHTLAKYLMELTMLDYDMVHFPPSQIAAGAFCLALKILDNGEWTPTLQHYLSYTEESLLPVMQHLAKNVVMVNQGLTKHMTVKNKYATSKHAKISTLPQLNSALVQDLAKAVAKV
# CDK9/CyclinT1, sequence (P50750 whole entry, species assumed): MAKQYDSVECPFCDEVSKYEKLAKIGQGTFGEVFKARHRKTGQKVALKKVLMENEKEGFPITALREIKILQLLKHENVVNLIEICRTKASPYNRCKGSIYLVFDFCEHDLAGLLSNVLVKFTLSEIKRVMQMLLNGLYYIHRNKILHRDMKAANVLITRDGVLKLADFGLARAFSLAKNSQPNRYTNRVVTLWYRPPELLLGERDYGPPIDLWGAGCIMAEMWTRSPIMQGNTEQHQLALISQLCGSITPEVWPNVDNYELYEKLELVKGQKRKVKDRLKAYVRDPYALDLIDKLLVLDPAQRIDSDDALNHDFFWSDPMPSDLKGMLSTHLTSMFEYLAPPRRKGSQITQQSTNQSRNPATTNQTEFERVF
# CDK9/CyclinT1, sequence (O60563 whole entry partner, species assumed): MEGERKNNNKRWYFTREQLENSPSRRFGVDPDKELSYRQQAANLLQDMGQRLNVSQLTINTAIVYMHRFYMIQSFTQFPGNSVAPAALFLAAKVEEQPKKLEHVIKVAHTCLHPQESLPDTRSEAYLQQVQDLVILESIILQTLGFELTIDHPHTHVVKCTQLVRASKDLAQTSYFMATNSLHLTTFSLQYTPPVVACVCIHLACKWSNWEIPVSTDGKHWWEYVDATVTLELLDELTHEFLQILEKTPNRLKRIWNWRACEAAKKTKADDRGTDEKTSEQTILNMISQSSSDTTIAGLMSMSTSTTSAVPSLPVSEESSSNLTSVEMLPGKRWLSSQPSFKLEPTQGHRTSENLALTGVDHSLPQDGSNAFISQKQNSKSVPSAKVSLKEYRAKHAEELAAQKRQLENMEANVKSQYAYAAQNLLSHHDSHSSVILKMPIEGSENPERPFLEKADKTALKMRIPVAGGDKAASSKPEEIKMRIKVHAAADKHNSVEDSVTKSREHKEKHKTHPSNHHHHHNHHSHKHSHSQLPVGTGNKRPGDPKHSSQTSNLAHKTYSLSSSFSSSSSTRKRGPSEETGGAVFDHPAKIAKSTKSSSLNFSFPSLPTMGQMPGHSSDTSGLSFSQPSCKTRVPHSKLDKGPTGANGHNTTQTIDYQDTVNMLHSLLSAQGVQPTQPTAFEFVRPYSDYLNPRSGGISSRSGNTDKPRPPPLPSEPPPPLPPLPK
# CDK4/CyclinD1, sequence (P11802 whole entry, species assumed): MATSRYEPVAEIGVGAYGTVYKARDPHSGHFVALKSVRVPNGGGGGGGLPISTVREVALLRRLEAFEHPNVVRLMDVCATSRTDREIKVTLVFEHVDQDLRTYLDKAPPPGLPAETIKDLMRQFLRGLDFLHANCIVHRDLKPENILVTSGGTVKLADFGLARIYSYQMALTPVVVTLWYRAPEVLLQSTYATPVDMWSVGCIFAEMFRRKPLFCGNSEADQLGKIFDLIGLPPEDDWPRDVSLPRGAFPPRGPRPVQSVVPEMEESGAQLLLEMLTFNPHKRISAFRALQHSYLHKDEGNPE
# CDK4/CyclinD1, sequence (P24385 whole entry partner, species assumed): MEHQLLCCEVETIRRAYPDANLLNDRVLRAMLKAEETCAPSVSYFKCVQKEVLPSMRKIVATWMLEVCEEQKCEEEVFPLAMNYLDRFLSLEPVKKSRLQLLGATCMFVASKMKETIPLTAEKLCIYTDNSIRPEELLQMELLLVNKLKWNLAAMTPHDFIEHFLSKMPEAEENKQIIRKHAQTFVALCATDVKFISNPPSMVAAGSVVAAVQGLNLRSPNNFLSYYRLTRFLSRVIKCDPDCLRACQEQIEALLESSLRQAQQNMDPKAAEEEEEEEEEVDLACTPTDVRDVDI
Ki (CDK4/CyclinD1),Ki (CDK7/CyclinH/Mat1),Ki (CDK9/CyclinT1),Ki (CDK1/CyclinB),Ki (FLT3-ITD),Ki (CDK2/CyclinA2),Ki (CDK6/CyclinD3),GI50 (MV-4-11),remaining activity at 1 µM (CDK4/CyclinD1),remaining activity at 1 µM (CDK7/CyclinH/Mat1),"remaining activity at 1 µM (CDK1/CyclinB; compound at 1 μM, read-out: Residual enzymatic activity (%) at 1 μM, CDK1 B)",remaining activity at 1 µM (CDK2/CyclinA2),Compound,inhibition of CDK9 (in words) (CDK9/CyclinT1)
74 nM,2540 nM,41 nM,2 nM,224 nM,1 nM,2900 nM,57 nM,,,,,"Fc1cnc(Nc2cccnc2)nc1-c1cnc2ccccn12 [Compound 4, 5-Fluoro-4-(imidazo[1,2-a]pyridin-3-yl)-N-(pyridin-3-yl)pyrimidin-2-amine]",
712 nM,2360 nM,5 nM,317 nM,79 nM,98 nM,716 nM,7 nM,,,,,"CN1CCN(c2ccc(Nc3nccc(-c4cnc5ccc(Br)cn45)n3)cn2)CC1 [Compound 5, 4-(6-Bromoimidazo[1,2-a]pyridin-3-yl)-N-(6-(4-methylpiperazin-1-yl)pyridin-3-yl)pyrimidin-2-amine]",
229 nM,238 nM,< 0.1 nM,265 nM,4 nM,177 nM,> 5000 nM,4 nM,,,,,"CN1CCN(c2ccc(Nc3nccc(-c4cnc5ccc(-c6ccccc6)cn45)n3)cn2)CC1 [Compound 6, N-(6-(4-Methylpiperazin-1-yl)pyridin-3-yl)-4-(6-phenylimidazo[1,2-a]pyridin-3-yl)pyrimidin-2-amine]",dramatically and surprisingly increased the potency of inhibition of CDK9
> 500 nM,2730 nM,0.4 nM,1100 nM,4 nM,825 nM,2160 nM,29 nM,,,,,"CN1CCN(c2ccc(Nc3nccc(-c4cnc5ccc(-c6cccnc6)cn45)n3)cn2)CC1 [Compound 7, N-(6-(4-Methylpiperazin-1-yl)pyridin-3-yl)-4-(6-(pyridin-3-yl)imidazo[1,2-a]pyridin-3-yl)pyrimidin-2-amine]",dramatically and surprisingly increased the potency of inhibition of CDK9
> 500 nM,> 5000 nM,6 nM,> 5000 nM,31 nM,2860 nM,> 5000 nM,19 nM,,,,,"CN1CCN(c2ccc(Nc3nccc(-c4cnc5ccc(-c6cncnc6)cn45)n3)cn2)CC1 [Compound 8, N-(6-(4-Methylpiperazin-1-yl)pyridin-3-yl)-4-(6-(pyrimidin-5-yl)imidazo[1,2-a]pyridin-3-yl)pyrimidin-2-amine]",
> 500 nM,895 nM,50 nM,61 nM,18 nM,2 nM,451 nM,6 nM,,,,,"CC(=O)N1CCN(c2ccc(Nc3ncc(F)c(-c4cnc5ccccn45)n3)cn2)CC1 [Compound 10, 1-(4-(5-((5-Fluoro-4-(imidazo[1,2-a]pyridin-3-yl)pyrimidin-2-yl)amino)pyridin-2-yl)piperazin-1-yl)ethan-1-one]",
,,1340 nM,,20 nM,101 nM,1010 nM,88 nM,21%,20%,54%,,"CC(=O)N1CCN(c2ccc(Nc3ncc(C)c(-c4cnc5ccccn45)n3)cn2)CC1 [Compound 11, 1-(4-(5-((4-(Imidazo[1,2-a]pyridin-3-yl)-5-methylpyrimidin-2-yl)amino)pyridin-2-yl)piperazin-1-yl)ethan-1-one]",
380 nM,1720 nM,29 nM,865 nM,7 nM,156 nM,779 nM,13 nM,,,,,"CN1CCN(c2ccc(Nc3nccc(-c4cnc5ccc(F)cn45)n3)cn2)CC1 [Compound 12, 4-(6-Fluoroimidazo[1,2-a]pyridin-3-yl)-N-(6-(4-methylpiperazin-1-yl)pyridin-3-yl) pyrimidin-2-amine]",
408 nM,410 nM,494 nM,500 nM,6 nM,170 nM,299 nM,7 nM,,,,,"Cc1cnc(Nc2ccc(N3CCNCC3)nc2)nc1-c1cnc2ccccn12 [Compound 13, 4-(Imidazo[1,2-a]pyridin-3-yl)-5-methyl-N-(6-(piperazin-1-yl)pyridin-3-yl)pyrimidin-2-amine]",
,1730 nM,> 5000 nM,150 nM,9 nM,64 nM,1600 nM,49 nM,50%,,,,"Cc1cnc(Nc2ccc(N3CCOCC3)nc2)nc1-c1cnc2ccccn12 [Compound 14, 4-(Imidazo[1,2-a]pyridin-3-yl)-5-methyl-N-(6-morpholinopyridin-3-yl)pyrimidin-2-amine]",
543 nM,1630 nM,234 nM,10 nM,15 nM,3 nM,1000 nM,20 nM,,,,,"Fc1cnc(Nc2ccc(N3CCOCC3)nc2)nc1-c1cnc2ccccn12 [Compound 15, 5-Fluoro-4-(imidazo[1,2-a]pyridin-3-yl)-N-(6-morpholinopyridin-3-yl)pyrimidin-2-amine]",
> 500 nM,> 1000 nM,28 nM,> 5000 nM,16 nM,> 1000 nM,> 5000 nM,6 nM,,,,,"CS(=O)(=O)N1CCN(c2ccc(Nc3nccc(-c4cnc5ccc(-c6ccccc6)cn45)n3)cn2)CC1 [Compound 17, N-(6-(4-(Methylsulfonyl)piperazin-1-yl)pyridin-3-yl)-4-(6-phenylimidazo[1,2-a]pyridin-3-yl)pyrimidin-2-amine]",
,,21 nM,450 nM,27 nM,557 nM,> 5000 nM,1 nM,47%,28%,,,"CS(=O)(=O)N1CCN(c2ccc(Nc3nccc(-c4cnc5ccc(-c6ccncc6)cn45)n3)cn2)CC1 [Compound 18, N-(6-(4-(Methylsulfonyl)piperazin-1-yl)pyridin-3-yl)-4-(6-(pyridin-4-yl)imidazo[1,2-a]pyridin-3-yl)pyrimidin-2-amine]",
,1690 nM,16 nM,776 nM,4 nM,,> 5000 nM,17 nM,83%,,,33%,"CS(=O)(=O)N1CCN(c2ccc(Nc3nccc(-c4cnc5ccc(-c6cccnc6)cn45)n3)cn2)CC1 [Compound 19, N-(6-(4-(Methylsulfonyl)piperazin-1-yl)pyridin-3-yl)-4-(6-(pyridin-3-yl)imidazo[1,2-a]pyridin-3-yl)pyrimidin-2-amine]",
,890 nM,56 nM,> 5000 nM,1450 nM,,> 5000 nM,94 nM,86%,,,41%,"CS(=O)(=O)N1CCN(c2ccc(Nc3nccc(-c4cnc5ccc(-c6cncnc6)cn45)n3)cn2)CC1 [Compound 20, N-(6-(4-(Methylsulfonyl)piperazin-1-yl)pyridin-3-yl)-4-(6-(pyrimidin-5-yl)imidazo[1,2-a]pyridin-3-yl)pyrimidin-2-amine]",
